We go through nine molecules from ChEMBL document CHEMBL1641504, “Characterization and anions inhibition studies of an α-carbonic anhydrase from the teleost fish Dicentrarchus labrax” (Bioorg Med Chem, 2011).

pKi: −log10 of the molar value. Bounds are passed on as bounds.

Targets include Carbonic anhydrase 4 (Homo sapiens, UniProt P22748); Carbonic anhydrase 1 (Homo sapiens, UniProt P00915); Carbonic anhydrase 9 (Homo sapiens, UniProt Q16790); Carbonic anhydrase 2 (Homo sapiens, UniProt P00918).
The target of assay [1] is Carbonic anhydrase 5A, mitochondrial (Homo sapiens, UniProt P35218).
Chain of Carbonic anhydrase 5A, mitochondrial (P35218 whole entry): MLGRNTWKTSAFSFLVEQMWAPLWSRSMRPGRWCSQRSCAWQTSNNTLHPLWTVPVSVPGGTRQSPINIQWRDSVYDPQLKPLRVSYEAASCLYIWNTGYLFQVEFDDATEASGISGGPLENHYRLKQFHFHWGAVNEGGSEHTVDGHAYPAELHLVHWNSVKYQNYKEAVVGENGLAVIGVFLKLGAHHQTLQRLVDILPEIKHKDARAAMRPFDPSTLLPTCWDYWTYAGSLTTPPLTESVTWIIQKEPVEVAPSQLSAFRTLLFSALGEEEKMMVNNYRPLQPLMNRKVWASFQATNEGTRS
Description: Inhibition of human carbonic anhydrase 5 by Lineweaver-Burk curves

Chain of Carbonic anhydrase 4 (P22748 whole entry): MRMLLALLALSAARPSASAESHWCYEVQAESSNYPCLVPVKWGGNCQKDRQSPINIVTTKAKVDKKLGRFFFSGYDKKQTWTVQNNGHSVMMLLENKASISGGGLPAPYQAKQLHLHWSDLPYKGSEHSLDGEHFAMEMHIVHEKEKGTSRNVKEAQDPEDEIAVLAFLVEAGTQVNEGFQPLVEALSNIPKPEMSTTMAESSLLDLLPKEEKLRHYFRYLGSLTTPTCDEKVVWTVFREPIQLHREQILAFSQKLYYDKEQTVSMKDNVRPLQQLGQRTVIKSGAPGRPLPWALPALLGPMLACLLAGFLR
Chain of Carbonic anhydrase 1 (P00915 whole entry): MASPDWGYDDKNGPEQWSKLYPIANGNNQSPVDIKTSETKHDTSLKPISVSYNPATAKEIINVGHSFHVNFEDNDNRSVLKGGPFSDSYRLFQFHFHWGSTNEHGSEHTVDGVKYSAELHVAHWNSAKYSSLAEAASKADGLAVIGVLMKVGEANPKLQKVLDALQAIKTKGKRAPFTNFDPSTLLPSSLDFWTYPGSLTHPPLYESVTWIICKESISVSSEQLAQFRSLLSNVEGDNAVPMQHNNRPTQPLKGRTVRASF
Description for Carbonic anhydrase 1: Inhibition of human carbonic anhydrase 1 by Lineweaver-Burk curves
Description for Carbonic anhydrase 4: Inhibition of human carbonic anhydrase 4 by Lineweaver-Burk curves
Description for Carbonic anhydrase 9: Inhibition of human carbonic anhydrase 9 by Lineweaver-Burk curves

Regarding `[Br-].[K+]` [POTASSIUM BROMIDE], the pKi was 1.30 in assay [1], 4.05 at Carbonic anhydrase 4, 2.40 at Carbonic anhydrase 1 and 1.80 at Carbonic anhydrase 9.

Consider `[Cl-].[K+]` [POTASSIUM CHLORIDE], for which the pKi in assay [1] was 0.81; on Carbonic anhydrase 4, 4.05; on Carbonic anhydrase 1, 2.22; on Carbonic anhydrase 2 it was under 0.70; on Carbonic anhydrase 9, 1.48.

With `[F-].[K+]` [POTASSIUM FLUORIDE], the values for the negative logarithm of the Ki (pKi) (in assay [1]; on Carbonic anhydrase 4; at Carbonic anhydrase 9) were 0.62, 4.15 and 1.32, respectively.

Turning to `[I-].[K+]` [POTASSIUM IODIDE], the pKi in assay [1] was 1.60; at Carbonic anhydrase 4, 4.10; on Carbonic anhydrase 1, 3.52; at Carbonic anhydrase 9, 2.15.

For `O=[N+]([O-])[O-].[K+]` [POTASSIUM NITRATE], the pKi in assay [1] is 1.80; at Carbonic anhydrase 4 it was 1.23; on Carbonic anhydrase 1, 2.15; on Carbonic anhydrase 9 it was 1.34.

`[N-]=[N+]=[N-]` [SODIUM AZIDE]: the pKi in assay [1] is 3.52; on Carbonic anhydrase 9 it was 5.30.

In assay [1], `O=NO` [SODIUM NITRITE] had a pKi of 1.80.

In the case of `O=S(=O)([O-])[O-].[Na+].[Na+]` [SODIUM SULFATE ANHYDROUS], the pKi is 0.17 in assay [1] and 2.05 at Carbonic anhydrase 4.

As to `N#C[S-].[Na+]` [THIOCYANATE SODIUM], the pKi in assay [1] is 3.13; on Carbonic anhydrase 4, 1.41; at Carbonic anhydrase 9, 3.89.

Usually pKi stands for the negative decadic logarithm of the Ki, by convention in mol/L. A high value points to a small Ki.
